Source: patent US9790545B2, “Method for determining the neurodevelopmental toxicity of a compound in vitro” (UNIVERSITEIT MAASTRICHT, priority 2012, dated 2017)
Read-outs that look alike come from different tables or passages of the source.

How the values were obtained:
1700011H14Rik = assay: Relative gene expression in neural differentiation culture of murine embryonic stem cells (ES-D3), microarray; details: exposed from day 3, harvested day 4 (24 h exposure), ratio to reference value, concentration coded in label (L low, H high, Table 3)
Tph1 = assay: as above; details: exposed from day 3, harvested day 4 (24 h exposure), ratio to reference value, concentration coded in label (L low, H high, Table 3)
Hoxb6 = assay: as above; details: exposed from day 3, harvested day 4 (24 h exposure), ratio to reference value, concentration coded in label (L low, H high, Table 3)
[1] = tested on: neural outgrowth of embryoid bodies from murine embryonic stem cells (ES-D3); assay: Golden standard classification of neurodevelopmental toxicity (morphological scoring of neural outgrowth); details: for Golden standard: tox / nontox at the concentration coded in the label (Table 3); for Neuro-developmentally toxic: yes / no at the concentration (μM) given in Table 3
Nrk = assay: Relative gene expression in neural differentiation culture of murine embryonic stem cells (ES-D3), microarray; details: exposed from day 3, harvested day 4 (24 h exposure), ratio to reference value, concentration coded in label (L low, H high, Table 3)
[2] = tested on: neural outgrowth of embryoid bodies from murine embryonic stem cells (ES-D3)

| relative expression value 1700011H14Rik (1700011H14Rik) | relative expression value Tph1 (Tph1) | relative expression value Hoxb6 (Hoxb6) | relative expression value Nrk (Nrk) | Compound | Golden standard [1] | Neuro-developmentally toxic [1] | further results |
| --- | --- | --- | --- | --- | --- | --- | --- |
| 0.962 | 0.944 | 0.807 | 0.914 | CCCC(CCC)C(=O)O [VpaL, Valproic acid] | nontox | no | relative expression value 1700011H14Rik (1700011H14Rik; listed as VpaH): 0.316; relative expression value Tph1 (Tph1; listed as VpaH): 1.130; relative expression value Hoxb6 (Hoxb6; listed as VpaH): 0.721; Golden standard ([1]; listed as VpaH): tox; Neuro-developmentally toxic ([1]; listed as vpaH): yes; relative expression value Nrk (Nrk; listed as VpaH): 1.518 |
| 1.146 | 0.817 | 0.839 | 0.766 | O=C1NC(=O)C(c2ccccc2)(c2ccccc2)N1 [pheL, Phenytoin] | nontox | no | relative expression value 1700011H14Rik (1700011H14Rik; listed as pheH): 0.995; relative expression value Tph1 (Tph1; listed as pheH): 0.781; relative expression value Hoxb6 (Hoxb6; listed as pheH): 0.840; Golden standard ([1]; listed as pheH): tox; Neuro-developmentally toxic ([1]; listed as pheH): yes; relative expression value Nrk (Nrk; listed as pheH): 0.781 |
| – | – | – | – | CCCCC(O)(Cn1cncn1)c1ccc(Cl)cc1Cl (stereo not shown) [hexL, Hexaconazole] | – | – | Golden standard [2]: nontox; Neuro-developmentally toxic [2]: no |
| 0.870 | 0.945 | 0.991 | 1.055 | NC(=O)N1c2ccccc2C=Cc2ccccc21 [cbzL, Carbamazepine] | nontox | no | relative expression value 1700011H14Rik (1700011H14Rik; listed as cbzH): 0.533; relative expression value Tph1 (Tph1; listed as cbzH): 0.751; relative expression value Hoxb6 (Hoxb6; listed as cbzH): 0.950; Golden standard ([1]; listed as cbzH): tox; Neuro-developmentally toxic ([1]; listed as cbzH): yes; relative expression value Nrk (Nrk; listed as cbzH): 1.217 |
| – | – | – | – | CC1(C)S[C@@H]2[C@H](NC(=O)Cc3ccccc3)C(=O)N2[C@H]1C(=O)[O-].[Na+] [pengL, Penicillin G] | nontox | no | – |
| 1.175 | 0.891 | 0.917 | 0.909 | CC=O [aceL, Acetaldehyde] | nontox | no | relative expression value 1700011H14Rik (1700011H14Rik; listed as aceH): 0.562; relative expression value Tph1 (Tph1; listed as aceH): 1.094; relative expression value Hoxb6 (Hoxb6; listed as aceH): 1.100; Golden standard ([1]; listed as aceH): tox; Neuro-developmentally toxic ([1]; listed as aceH): yes; relative expression value Nrk (Nrk; listed as aceH): 1.290 |

| Compound | relative expression value 1700011H14Rik (1700011H14Rik) | relative expression value Tph1 (Tph1) | relative expression value Hoxb6 (Hoxb6) | relative expression value Nrk (Nrk) | Golden standard [1] | Neuro-developmentally toxic [1] | further results |
| --- | --- | --- | --- | --- | --- | --- | --- |
| Methylmercury chloride [mehgH] | 1.665 | 1.116 | 1.302 | 0.719 | tox | yes | – |
